In US20240299376A1, “METHOD OF TREATING A CONDITION USING A […] EFFECTIVE DOSE OF 1-(1-OXO-1,2-DIHYDROISOQUINOLIN-5-YL)-5-(TRIFLUOROMETHYL)-N-(2-(TRIFLUOROMETHYL)PYRIDIN-4-YL)-1H-PYRAZOLE-4-CARBOXAMIDE” (Janssen Pharmaceutica NV, priority 2021, published 2024):
Like-named read-outs stand apart in the source and are kept apart here. Marks after values point to notes of the source that are not given here.

Experiments:
[1] = tested on: OCI-LY3 human DLBCL xenografts; test: Antitumor efficacy in established OCI-LY3 human DLBCL xenografts; assay type: in vivo, NSG mice
Experimental: The human ABC-DLBCL cell line OCI-LY3 was obtained from Dr. Miguel A Piris, Hospital Universitario Marques de Valdecilla, Santander, Spain. The human ABC-DLBCL cell line OCI-LY-10 was obtained from University Hospital Network, Ontario Cancer Institute. OCY-LY3 cells were maintained at 37° C. in a humidified atmosphere (5% CO2, 95% air), in RPMI-1640 medium with GlutaMAX™, supplemented with 10% Fetal Bovine Serum (Heat Inactivated at 57° C., and 1% Penicillin-Streptomycin). Each mouse received 1×10^6 cells in serum-free RPMI-1640 medium or PBS with Matrigel basement matrix […] in a total volume of 0.2 mL. Cells were implanted SC in the right flank using a 1 ml syringe and a 26-gauge needle. The day of tumor implantation was designated as Day 0.
Tumor volume was calculated using the formula: tumor volume (mm^3)=(Dxd^2/2); where ‘D’ represents the larger diameter, and ‘d’ the smaller diameter of the tumor as determined by caliper measurements. Tumor volume data was graphically represented as the mean tumor volume±SEM.
Percent tumor growth inhibition (TGI) was defined as the difference between mean tumor volumes of the treated and control group, calculated as
where TVc is the mean tumor volume of a given control group and TVt is the mean tumor volume of the treatment group. As defined by National Cancer Institute criteria, ≥60% TGI is considered biologically significant.
Group tumor volumes are graphed as the mean+/−SEM. Mice were implanted SC on the right flank on Day 0.
For study 3, animals were randomly assigned into treatment groups, when the OCI-LY3 mean tumor volume was 164 mm^3 (Day 32 post-tumor cell implantation). Treatment was initiated on the day of randomization (Day 32). After 28 days of treatment on Day 60, serum was collected at 2, 4, and 12 hours post last dose for the bid treated groups or 2, 4 and 24 hours post last dose for qd treated groups in cohorts of 5 mice. Blood was collected from the retro-orbital sinus and submitted for bioanalytical analysis.

[2] = tested on: Rec1 (Ibrutinib sensitive MCL); test: Anti-proliferative activity, DLBCL cell line panel; assay type: cell-based; details: Homo sapiens, Rec1, 192 h; antiproliferation after 8 days of treatment
[3] = Serum concentration after 28 days of oral dosing in male OCI-LY3 tumor-bearing NSG mice; assay type: in vivo; details: mouse, mean; for concentration at 0.25 h: 0.25 h post last dose
OCI-LY3 cells = test: Whole-gene transcriptomics; assay type: cell-based, human; details: OCI-LY3 (Myd88 and CARD11 mutations)
[4] = Serum and tumor levels after a single oral dose in male OCI-LY3 tumor-bearing NSG mice; assay type: in vivo; details: 100 mg/kg single oral dose, PEG400 solution, mean (SD)
Experimental: For PD, when tumors reached 550-750 mm^3 animals were assigned randomly into the treatment groups and treated as presented in Table 5. Dose volumes were adjusted to individual body weights at 10 mL/kg. For both PD studies, serum was collected at 2 and 12 hours post treatment from the retro-orbital sinus. At 24 hours post treatment, animals were bled via decapitation and tumors were excised, weighed, and divided for bioanalysis and ex vivo PD analysis. Blood was centrifuged at 10,000 rpm and serum divided for bioanalysis and PD analysis.
Serum samples were collected at 2, 12, and 24 hours post dose and tumor samples were collected 24 hours post dose.

[5] = tested on: phosphorylation of IκBα in OCI-LY3 cells; details: unstimulated conditions
Text: The phospho-IκBα (pIκBα) signal was quantified as percent of DMSO control and normalized against β-tubulin.

MALT1 substrate BCL10 = test: BCL10 Mesoscale assay of OCI-LY3 tumor samples after a single dose; assay type: in vivo, NSG mice; details: OCI-LY3 tumors
Experimental: MALT1 protease activity results in the cleavage of negative regulators of the classical NF-κB pathway such as A20, CYLD, RelB, and BCL10. […] The assay measures un-cleaved BCL10 which is increased upon MALT1 inhibition. OCI-LY3 or OCI-LY10 tumors were crushed before lysis in Mammalian Protein Extraction Reagent buffer for 30 minutes at 4° C. Centrifugation of the lysate was done and supernatant kept for analysis in the MSD assay. MSD plates (small spot, goat anti-rabbit coated, MSD L45RA-1) were blocked for 1 hour with 3% Bovine serum Albumin (in Tris-buffered saline, 0.1% Tween 20) and labeled with BCL10 antibody (Abcam #33905) to capture the uncleaved BCL10. 25 μg of tumor lysates were transferred to the BCL 10-labeled MSD plate and incubated for 24 hours at 4° C. followed by 2-hour incubation with BCL10 antibody detecting cleaved/uncleaved BCL10 (ab93022) and 2-hour antibody detection. Plates were read on a SECTOR imager.
As a more direct PD readout, OCI-LY3 tumor samples were analyzed by a BCL 10 Mesoscale assay, looking for cleavage inhibition of the MALT1 substrate BCL10. The assay measures uncleaved BCL10 in tumor.
Tumor uncleaved BCL10 levels are graphed as the mean+SD.
For PD, when tumors reached 550-750 mm^3 animals were assigned randomly into the treatment groups and treated as presented in Table 5. Dose volumes were adjusted to individual body weights at 10 mL/kg. […]

Single IV dose plasma PK = assay type: in vivo, rat; details: for C0 / Vd / AUC(0-inf) / clearance / half-life: male, plasma, S-D; for C0 / Vd: Rat; for Vd / AUC(0-inf) / clearance / half-life: iv, 1 mg/kg; for Vd: read-out: Vdss
Experimental: Single intravenous (IV) dose PK was conducted in mice (two strains), rats, monkeys, and dogs at a dose of 1 mg/kg in 70% PEG400 (PEG400/water 70:30) by bolus injection. The time course for plasma sample was optimized to fully characterize the disposition profile in each species. PK analysis was by non-compartmental method.

[6] = Sprague-Dawley (S-D), rat, 3M, 1 mg/kg IV in 70% PEG400 (-AAA), mean
[7] = Sprague-Dawley (S-D), rat, 6M, 1 mg/kg IV, dosed as the -ZAF salt

O=C(Nc1ccnc(C(F)(F)F)c1)c1cnn(-c2cccc3c(=O)[nH]ccc23)c1C(F)(F)F [Compound A, 1-(1-oxo-1,2-dihydroisoquinolin-5-yl)-5-(trifluoromethyl)-N-[2-(trifluoromethyl)pyridin-4-yl]-1H-pyrazole-4-carboxamide]
TGI ([1]; 1 mg/kg BID PO, 4 weeks, vs vehicle control): 37% | TGI (%) at day 28 ([1]; 1 mg/kg, bid (Table 4)): 46% | TGI ([1]; 3 mg/kg BID PO, 4 weeks, vs vehicle control): 19% | TGI (%) at day 28 ([1]; 3 mg/kg, bid (Table 4)): 23% | TGI ([1]; 10 mg/kg BID PO, 4 weeks, vs vehicle control): 53% | mean TGI ([1]; 10 mg/kg BID, 3 independent OCI-LY3 antitumor efficacy studies): 60% | TGI ([1]; 10 mg/kg BID, previous efficacy studies in the OCI-LY3 model): 51-76% | TGI ([1]; 10 mg/kg, 8/16 hr split schedule instead of 12/12 hr): 57% | TGI (%) at day 28 ([1]; 10 mg/kg, bid (Table 4)): 66% | TGI ([1]; 30 mg/kg BID PO, 4 weeks, vs vehicle control): 72% | TGI ([1]; 30 mg/kg BID, previous efficacy studies in the OCI-LY3 model): 60-86% | TGI (%) at day 28 ([1]; 30 mg/kg, bid (Table 4)): 90% | TGI ([1]; 60 mg/kg QD PO, 4 weeks, vs vehicle control): 57% | TGI (%) at day 28 ([1]; 60 mg/kg, qd (Table 4)): 71% | TGI ([1]; 100 mg/kg BID PO, 4 weeks, vs vehicle control): 72% | TGI (%) at day 28 ([1]; 100 mg/kg, bid (Table 4)): 90% | TGI ([1]; 100 mg/kg, previous efficacy studies in the OCI-LY3 model): 62-89% | tolerability ([1]; 1 to 100 mg/kg (BID or QD), OCI-LY3 and OCI-LY10 xenograft models in NSG mice): well tolerated | minimum efficacious dose ([1]; BID, OCI-LY3 model): 10 mg/kg | IC50 [2]: 1.17 µM | concentration at 0.25 h ([3]; 1 mg/kg BID PO 28 days): 323 ng/mL | concentration at 0.25 h ([3]; 60 mg/kg QD PO 28 days): 6990 ng/mL | concentration at 8 h ([3]; 60 mg/kg QD PO 28 days, 8 h post last dose): 10600 ng/mL | gene expression changes (OCI-LY3 cells): clear dose-dependent gene expression changes | Serum concentration ([4]; 12 h post dose): 4,118 (1,322 ng/ml | Tumor concentration ([4]; 24 h post dose, N = 4): 1,180 (223)^b ng/g | concentration at 2 h ([4]; male, NSG, mouse, serum, 2 h post dose): 3730 ng/mL | concentration at 24 h ([4]; male, NSG, mouse, serum, 24 h post dose): 1060 ng/mL | inhibition of phospho-IκBα [5]: did not inhibit phospho-IκBα | dose giving maximum levels of uncleaved BCL10 (MALT1 substrate BCL10): ≥ 10 mg/kg | fraction of uncleaved BCL10 in tumor (MALT1 substrate BCL10): dose-dependently increased the fraction of uncleaved BCL10 | C0 (Single IV dose plasma PK; Sprague-Dawley (S-D), 6M, 1 mg/kg IV, dosed as the -ZAF salt, mean): 1450 ng/mL | Vd (Single IV dose plasma PK; [6]): 0.86 L/kg | Vd (Single IV dose plasma PK; [7]): 0.622 L/kg | AUC(0-inf) (Single IV dose plasma PK; [6]): 7950 ng·h/mL | clearance (Single IV dose plasma PK; [6]): 2.15 mL/min/kg | half-life (Single IV dose plasma PK; [6]): 10 h | AUC(0-inf) (Single IV dose plasma PK; [7]): 9780 ng·h/mL | clearance (Single IV dose plasma PK; [7]): 1.7 mL/min/kg | half-life (Single IV dose plasma PK; [7]): 5.33 h | C0 (Single IV dose plasma PK; Sprague-Dawley, 3M, 1 mg/kg IV in 70% PEG400 (-AAA), mean): 2200 ng/mL | CL as fraction of liver blood flow (LBF) (Single IV dose plasma PK; rat, LBF 55.2 mL/min/kg): 1.5%
